Laboratory results from PubChem BioAssay AID1745844 (Carcinogenic Potency Database (CPDB), 2022).
Active and inactive are the calls of the source. How the calls were made is not given here.

Tested on: rodent lifetime carcinogenesis bioassay, tumor incidence TD50
Experiment: carcinogenic potency in animals, long-term in vivo studies, CPDB compilation (AID 1745844)

Nc1ccc(Cl)cc1
carcinogen call (mouse, strain B6C3F1, females, by gavage, site: any site (literature study), lesion: several types, types named in the paper, dosed 103 weeks, study length 105 weeks): negative (inactive)
TD50 (mouse, strain B6C3F1, females, by gavage, site: liver, lesion: hepatocellular adenoma + hepatocellular carcinoma + neoplastic nodule, dosed 103 weeks, study length 105 weeks): 176 mg/kg/day
TD50 (mouse, strain B6C3F1, males, by gavage, site: all sites + liver, lesion: hemangiosarcoma + hepatocellular adenoma + hepatocellular carcinoma, dosed 103 weeks, study length 105 weeks): 56 mg/kg/day
TD50 (mouse, strain B6C3F1, males, by gavage, site: all sites, lesion: hemangiosarcoma, dosed 103 weeks, study length 105 weeks): 89.5 mg/kg/day
TD50 (mouse, strain B6C3F1, males, by gavage, site: any site (literature study), lesion: several types, types named in the paper, dosed 103 weeks, study length 105 weeks): 83.7 mg/kg/day
TD50 (mouse, strain B6C3F1, males, by gavage, site: liver, lesion: hepatocellular adenoma + hepatocellular carcinoma + neoplastic nodule, dosed 103 weeks, study length 105 weeks): 49.3 mg/kg/day
TD50 (mouse, strain B6C3F1, males, by gavage, site: liver, lesion: hepatocellular adenoma + hepatocellular carcinoma, dosed 103 weeks, study length 105 weeks): 49.3 mg/kg/day
TD50 (mouse, strain B6C3F1, males, by gavage, site: liver, lesion: hepatocellular carcinoma, dosed 103 weeks, study length 105 weeks): 33.8 mg/kg/day
TD50 (mouse, strain B6C3F1, males, by gavage, site: lung, lesion: alveolar/bronchiolar adenoma + alveolar/bronchiolar carcinoma, dosed 103 weeks, study length 105 weeks): 2780 mg/kg/day
TD50 (rat, strain Fischer 344, females, by gavage, site: adrenal medulla, lesion: pheochromocytoma, benign, dosed 103 weeks, study length 105 weeks): 105 mg/kg/day
TD50 (rat, strain Fischer 344, females, by gavage, site: any site (literature study), lesion: several types, types named in the paper, dosed 103 weeks, study length 105 weeks): 145 mg/kg/day
TD50 (rat, strain Fischer 344, females, by gavage, site: spleen, lesion: fibrosarcoma + osteosarcoma, dosed 103 weeks, study length 105 weeks): 232 mg/kg/day
TD50 (rat, strain Fischer 344, males, by gavage, site: adrenal medulla, lesion: pheochromocytoma benign, bilateral + pheochromocytoma, benign, dosed 103 weeks, study length 105 weeks): 14.8 mg/kg/day
TD50 (rat, strain Fischer 344, males, by gavage, site: adrenal medulla, lesion: pheochromocytoma benign, bilateral + pheochromocytoma, malignant + pheochromocytoma, benign, dosed 103 weeks, study length 105 weeks): 13.3 mg/kg/day
TD50 (rat, strain Fischer 344, males, by gavage, site: any site (literature study), lesion: several types, types named in the paper, dosed 103 weeks, study length 105 weeks): 20.8 mg/kg/day
TD50 (rat, strain Fischer 344, males, by gavage, site: spleen, lesion: fibrosarcoma + fibroma, dosed 103 weeks, study length 105 weeks): 16.9 mg/kg/day
TD50 (rat, strain Fischer 344, males, by gavage, site: spleen, lesion: fibrosarcoma + hemangiosarcoma + osteosarcoma, dosed 103 weeks, study length 105 weeks): 7.62 mg/kg/day
TD50 (rat, strain Fischer 344, males, by gavage, site: spleen, lesion: fibrosarcoma + osteosarcoma, dosed 103 weeks, study length 105 weeks): 7.9 mg/kg/day
TD50 (rat, strain Fischer 344, males, by gavage, site: spleen, lesion: fibrosarcoma, dosed 103 weeks, study length 105 weeks): 19 mg/kg/day
TD50 (rat, strain Fischer 344, males, by gavage, site: spleen, lesion: hemangiosarcoma, dosed 103 weeks, study length 105 weeks): 107 mg/kg/day
TD50 (rat, strain Fischer 344, males, by gavage, site: spleen, lesion: osteosarcoma, dosed 103 weeks, study length 105 weeks): 15.5 mg/kg/day

O=[N+]([O-])c1cc(N(CCO)CCO)ccc1NCCO
TD50 (mouse, strain B6C3F1, females, in feed, site: any site (literature study), lesion: several types, types named in the paper, dosed 104 weeks, study length 105 weeks): 42000 mg/kg/day (inactive)
TD50 (mouse, strain B6C3F1, females, in feed, site: liver, lesion: hepatocellular adenoma + hepatocellular carcinoma + neoplastic nodule, dosed 104 weeks, study length 105 weeks): 19000 mg/kg/day
TD50 (mouse, strain B6C3F1, males, in feed, site: all sites, lesion: malignant lymphoma, histiocytic type + malignant lymphoma, mixed type + malignant lymphoma, lymphocytic type, dosed 104 weeks, study length 105 weeks): 4040 mg/kg/day
TD50 (mouse, strain B6C3F1, males, in feed, site: all sites, lesion: malignant lymphoma, lymphocytic type, dosed 104 weeks, study length 105 weeks): 5450 mg/kg/day
TD50 (mouse, strain B6C3F1, males, in feed, site: any site (literature study), lesion: several types, types named in the paper, dosed 104 weeks, study length 105 weeks): 5020 mg/kg/day
TD50 (mouse, strain B6C3F1, males, in feed, site: liver, lesion: hepatocellular adenoma + hepatocellular carcinoma + neoplastic nodule, dosed 104 weeks, study length 105 weeks): 6550 mg/kg/day
TD50 (mouse, strain B6C3F1, males, in feed, site: skin + subcutaneous tissue, lesion: fibrosarcoma + fibroma, dosed 104 weeks, study length 105 weeks): 970 mg/kg/day (inactive)
TD50 (rat, strain Fischer 344, females, in feed, site: any site (literature study), lesion: several types, types named in the paper, dosed 103 weeks, study length 104 weeks): 3.13e+06 mg/kg/day
TD50 (rat, strain Fischer 344, females, in feed, site: liver, lesion: hepatocellular adenoma + hepatocellular carcinoma + neoplastic nodule, dosed 103 weeks, study length 104 weeks): 8150 mg/kg/day
TD50 (rat, strain Fischer 344, females, in feed, site: liver, lesion: hepatocellular carcinoma + neoplastic nodule, dosed 103 weeks, study length 104 weeks): 8150 mg/kg/day (inactive)
TD50 (rat, strain Fischer 344, males, in feed, site: liver, lesion: hepatocellular adenoma + hepatocellular carcinoma + neoplastic nodule, dosed 103 weeks, study length 104 weeks): 20300 mg/kg/day
TD50 (rat, strain Fischer 344, males, in feed, site: thyroid gland, lesion: c-cell carcinoma, dosed 103 weeks, study length 104 weeks): 1990 mg/kg/day (inactive)

C=CCOC(=O)c1ccccc1C(=O)OCC=C
TD50 (mouse, strain B6C3F1, females, by gavage, site: any site (literature study), lesion: several types, types named in the paper, dosed 103 weeks, study length 106 weeks): 10100 mg/kg/day
TD50 (mouse, strain B6C3F1, females, by gavage, site: forestomach, lesion: papilloma, NOS, dosed 103 weeks, study length 106 weeks): 2730 mg/kg/day
TD50 (mouse, strain B6C3F1, females, by gavage, site: liver, lesion: hepatocellular adenoma + hepatocellular carcinoma + neoplastic nodule, dosed 103 weeks, study length 106 weeks): 2930 mg/kg/day
TD50 (mouse, strain B6C3F1, females, by gavage, site: lung, lesion: alveolar/bronchiolar adenoma + alveolar/bronchiolar carcinoma, dosed 103 weeks, study length 106 weeks): 4180 mg/kg/day
TD50 (mouse, strain B6C3F1, males, by gavage, site: all sites, lesion: malignant lymphoma, NOS, dosed 103 weeks, study length 106 weeks): 816 mg/kg/day
TD50 (mouse, strain B6C3F1, males, by gavage, site: any site (literature study), lesion: several types, types named in the paper, dosed 103 weeks, study length 106 weeks): 717 mg/kg/day
TD50 (mouse, strain B6C3F1, males, by gavage, site: forestomach, lesion: papilloma, NOS, dosed 103 weeks, study length 106 weeks): 2460 mg/kg/day
TD50 (mouse, strain B6C3F1, males, by gavage, site: liver, lesion: hepatocellular adenoma + hepatocellular carcinoma + neoplastic nodule, dosed 103 weeks, study length 106 weeks): 6680 mg/kg/day
TD50 (mouse, strain B6C3F1, males, by gavage, site: liver, lesion: hepatocellular adenoma, dosed 103 weeks, study length 106 weeks): 2450 mg/kg/day
TD50 (mouse, strain B6C3F1, males, by gavage, site: lung, lesion: alveolar/bronchiolar adenoma + alveolar/bronchiolar carcinoma, dosed 103 weeks, study length 106 weeks): 8520 mg/kg/day
TD50 (rat, strain Fischer 344, females, by gavage, site: all sites, lesion: mononuclear-cell leukemia, dosed 103 weeks, study length 104 weeks): 138 mg/kg/day
TD50 (rat, strain Fischer 344, females, by gavage, site: any site (literature study), lesion: several types, types named in the paper, dosed 103 weeks, study length 104 weeks): 163 mg/kg/day
TD50 (rat, strain Fischer 344, males, by gavage, site: any site (literature study), lesion: several types, types named in the paper, dosed 103 weeks, study length 104 weeks): 2990 mg/kg/day (inactive)

CC(C)N(C(=O)SCC(Cl)=CCl)C(C)C
TD50 (mouse, strain B6AKF1, females, oral dosing, site: any site (literature study), lesion: several types, types named in the paper, dosed 85 weeks, study length 85 weeks): 1990 mg/kg/day
TD50 (mouse, strain B6AKF1, females, oral dosing, site: liver, lesion: hepatoma, dosed 85 weeks, study length 85 weeks): 516 mg/kg/day
TD50 (mouse, strain B6AKF1, females, oral dosing, site: lung, lesion: adenoma, dosed 85 weeks, study length 85 weeks): 4260 mg/kg/day
TD50 (mouse, strain B6AKF1, males, oral dosing, site: any site (literature study), lesion: several types, types named in the paper, dosed 84 weeks, study length 84 weeks): 35.4 mg/kg/day
TD50 (mouse, strain B6AKF1, males, oral dosing, site: liver, lesion: hepatoma, dosed 84 weeks, study length 84 weeks): 43 mg/kg/day
TD50 (mouse, strain B6AKF1, males, oral dosing, site: lung, lesion: adenoma, dosed 84 weeks, study length 84 weeks): 243 mg/kg/day
TD50 (mouse, strain B6C3F1, females, oral dosing, site: any site (literature study), lesion: several types, types named in the paper, dosed 83 weeks, study length 83 weeks): 90.8 mg/kg/day
TD50 (mouse, strain B6C3F1, females, oral dosing, site: liver, lesion: several types, types named in the paper, dosed 83 weeks, study length 83 weeks): 164 mg/kg/day
TD50 (mouse, strain B6C3F1, females, oral dosing, site: lung, lesion: adenoma, dosed 83 weeks, study length 83 weeks): 255 mg/kg/day
TD50 (mouse, strain B6C3F1, males, oral dosing, site: any site (literature study), lesion: several types, types named in the paper, dosed 84 weeks, study length 84 weeks): 15.6 mg/kg/day
TD50 (mouse, strain B6C3F1, males, oral dosing, site: liver, lesion: hepatoma, dosed 84 weeks, study length 84 weeks): 19.4 mg/kg/day
TD50 (mouse, strain B6C3F1, males, oral dosing, site: lung, lesion: adenoma, dosed 84 weeks, study length 84 weeks): 113 mg/kg/day

CC(=O)N[C@@H](CC(C)C)C(=O)N[C@@H](CC(C)C)C(=O)NC(C=O)CCCN=C(N)N (some centres undefined)
TD50 (mouse, strain A/JJms, females, in feed, site: liver, lesion: liver-cell tumor, type B, dosed 68 weeks, study length 68 weeks): 933 mg/kg/day (inactive)
TD50 (mouse, strain A/JJms, females, in feed, site: lung, lesion: several types, types named in the paper, dosed 68 weeks, study length 68 weeks): 229 mg/kg/day (inactive)
TD50 (mouse, strain A/JJms, males, in feed, site: liver, lesion: several types, types named in the paper, dosed 68 weeks, study length 68 weeks): 55.8 mg/kg/day
TD50 (mouse, strain A/JJms, males, in feed, site: lung, lesion: several types, types named in the paper, dosed 68 weeks, study length 68 weeks): 422 mg/kg/day (inactive)

S=C=Nc1ccccc1
TD50 (mouse, strain B6AKF1, females, oral dosing, site: any site (literature study), lesion: several types, types named in the paper, dosed 76 weeks, study length 76 weeks): 39.4 mg/kg/day (inactive)
TD50 (mouse, strain B6AKF1, females, oral dosing, site: liver, lesion: hemangioma, dosed 76 weeks, study length 76 weeks): 138 mg/kg/day (inactive)
carcinogen call (mouse, strain B6AKF1, females, oral dosing, site: lung, lesion: adenoma, dosed 76 weeks, study length 76 weeks): negative (inactive)
carcinogen call (mouse, strain B6AKF1, males, oral dosing, site: any site (literature study), lesion: several types, types named in the paper, dosed 76 weeks, study length 76 weeks): negative (inactive)
carcinogen call (mouse, strain B6AKF1, males, oral dosing, site: liver, lesion: hepatoma, dosed 76 weeks, study length 76 weeks): negative (inactive)
carcinogen call (mouse, strain B6AKF1, males, oral dosing, site: lung, lesion: adenoma, dosed 76 weeks, study length 76 weeks): negative (inactive)
carcinogen call (mouse, strain B6C3F1, females, oral dosing, site: any site (literature study), lesion: one or several types, types not named, dosed 76 weeks, study length 76 weeks): negative (inactive)
carcinogen call (mouse, strain B6C3F1, females, oral dosing, site: liver, lesion: hepatoma, dosed 76 weeks, study length 76 weeks): negative (inactive)
carcinogen call (mouse, strain B6C3F1, females, oral dosing, site: lung, lesion: several types, types named in the paper, dosed 76 weeks, study length 76 weeks): negative (inactive)
TD50 (mouse, strain B6C3F1, males, oral dosing, site: any site (literature study), lesion: several types, types named in the paper, dosed 76 weeks, study length 76 weeks): 40.2 mg/kg/day (inactive)
TD50 (mouse, strain B6C3F1, males, oral dosing, site: liver, lesion: hepatoma, dosed 76 weeks, study length 76 weeks): 128 mg/kg/day (inactive)
TD50 (mouse, strain B6C3F1, males, oral dosing, site: lung, lesion: adenoma, dosed 76 weeks, study length 76 weeks): 128 mg/kg/day (inactive)
